Assay results published in US20060193786A1, “Pharmaceutical composition for intranasal administration containing a CGRP antagonist” (Boehringer Ingelheim Pharma GmbH & Co. KG, priority 2002, published 2006).

Assay: Stability testing of more highly concentrated nasal spray solutions
Type: physicochemical
Settings: for content of active substance (A): as free base
Experimental: Stability testing of more highly concentrated nasal spray solutions according to the invention:
The total decomposition which is high in some circumstances (particularly at 40° C.) is based on hydrolysis.
The content of active substance (A) given in Table 1 refers in each case to the free base originally weighed out.

[1] = active substance concentration 15, 3-month value, 25° C.
[2] = active substance concentration 15, 3-month value, 40° C.
[3] = active substance concentration 15, 6-month value, 25° C.
[4] = active substance concentration 15, 6-month value, 40° C.
[5] = active substance concentration 15, 6-week value, 25° C.
[6] = active substance concentration 15, 6-week value, 40° C.
[7] = active substance concentration 15, initial value
[8] = active substance concentration 20%, 3-month value, 25° C.
[9] = active substance concentration 20%, 3-month value, 40° C.
[10] = active substance concentration 20%, 6-month value, 25° C.
[11] = active substance concentration 20%, 6-month value, 40° C.
[12] = active substance concentration 20%, 6-week value, 25° C.
[13] = active substance concentration 20%, 6-week value, 40° C.
[14] = active substance concentration 20%, initial value
[15] = active substance concentration 30%, 3-month value, 25° C.
[16] = active substance concentration 30%, 3-month value, 40° C.
[17] = active substance concentration 30%, 6-month value, 25° C.
[18] = active substance concentration 30%, 6-month value, 40° C.
[19] = active substance concentration 30%, 6-week value, 25° C.
[20] = active substance concentration 30%, 6-week value, 40° C.
[21] = active substance concentration 30%, initial value

decomposition by oxidation [1]: 0.64%
overall decomposition [1]: 1.69%
content of active substance (A) [1]: 147.7 mg/mL
decomposition by oxidation [2]: 0.55%
overall decomposition [2]: 8.22%
content of active substance (A) [2]: 139.4 mg/mL
decomposition by oxidation [3]: 0.82%
overall decomposition [3]: 2.07%
content of active substance (A) [3]: 147.7 mg/mL
decomposition by oxidation [4]: 0.78%
overall decomposition [4]: 15.33%
content of active substance (A) [4]: 131.7 mg/mL
decomposition by oxidation [5]: 0.72%
overall decomposition [5]: 1.60%
content of active substance (A) [5]: 148.1 mg/mL
decomposition by oxidation [6]: 0.52%
overall decomposition [6]: 4.46%
content of active substance (A) [6]: 142.3 mg/mL
decomposition by oxidation [7]: 0.59%
overall decomposition [7]: 1.23%
content of active substance (A) [7]: 148.6 mg/mL
decomposition by oxidation [8]: 0.53%
overall decomposition [8]: 1.50%
content of active substance (A) [8]: 202.8 mg/mL
decomposition by oxidation [9]: 0.47%
overall decomposition [9]: 8.23%
content of active substance (A) [9]: 191.4 mg/mL
decomposition by oxidation [10]: 0.77%
overall decomposition [10]: 1.99%
content of active substance (A) [10]: 202 mg/mL
decomposition by oxidation [11]: 0.74%
overall decomposition [11]: 14.61%
content of active substance (A) [11]: 182.8 mg/mL
decomposition by oxidation [12]: 0.54%
overall decomposition [12]: 1.09%
content of active substance (A) [12]: 198.7 mg/mL
decomposition by oxidation [13]: 0.55%
overall decomposition [13]: 3.97%
content of active substance (A) [13]: 192.1 mg/mL
decomposition by oxidation [14]: 0.56%
overall decomposition [14]: 1.27%
content of active substance (A) [14]: 197.9 mg/mL
decomposition by oxidation [15]: 0.60%
overall decomposition [15]: 1.48%
content of active substance (A) [15]: 270 mg/mL
decomposition by oxidation [16]: 0.59%
overall decomposition [16]: 7.81%
content of active substance (A) [16]: 260 mg/mL
decomposition by oxidation [17]: 0.91%
overall decomposition [17]: 2.04%
content of active substance (A) [17]: 273 mg/mL
decomposition by oxidation [18]: 0.84%
overall decomposition [18]: 13.36%
content of active substance (A) [18]: 246 mg/mL
decomposition by oxidation [19]: 0.62%
overall decomposition [19]: 1.19%
content of active substance (A) [19]: 264 mg/mL
decomposition by oxidation [20]: 0.58%
overall decomposition [20]: 3.95%
content of active substance (A) [20]: 260 mg/mL
decomposition by oxidation [21]: 0.56%
overall decomposition [21]: 1.20%
content of active substance (A) [21]: 269 mg/mL
SMILES: NCCCC[C@H](NC(=O)[C@@H](Cc1cc(Br)c(O)c(Br)c1)NC(=O)N1CCC(N2Cc3ccccc3NC2=O)CC1)C(=O)N1CCN(c2ccncc2)CC1 [(A), 1-[N^2-[3,5-dibromo-N-[[4-(3,4-dihydro-2(1H)-oxoquinazolin-3-yl)-1-piperidinyl]carbonyl]-D-tyrosyl]-L-lysyl]-4-(4-pyridinyl)-piperazine]
oxidative decomposition (hydrochloride in aqueous solution, over a long period): virtually unchanged or increases only slightly
